pKd: −log10 of the molar value. Entries after “also recorded” stand apart in the source; their conditions may differ. Structures can show the parent of a compound that is named as a salt. Where two headings read alike, the source gives them in different places.
Legend:
[1] = target: SARS-CoV-2 Spike S1 (RBD) (Severe acute respiratory syndrome coronavirus 2, UniProt P0DTC2); experiment: biochemical; assay type: binding; details: for Kd: read-out: Affinity (nM) of binding to SARS-COV2 Spike protein
SARS-CoV-2 [2] = experiment: combination therapy, viral load by RT-PCR (ORF1ab gene) in Calu-3 cells; assay type: cell-based; design: key to enhanced decrease of viral load, combination vs two single agents: Each combination that showed an enhanced decrease of viral load as compared with the two single agents is denoted by “E”; Combinations that showed a slight trend towards an enhanced decrease of viral load as compared with the two single agents is denoted by “(e)”; —; details: for decrease of viral load, agent alone: FIG. 31, mixed with SARS-CoV-2 (MOI 0.01) 1 hour at room temperature, RT-PCR (ORF1ab) 24 hours post infection, of the control
SARS-CoV-2 [3] = assay type: cell-based
[4] = system: human bronchial epithelial cells (HBE1); experiment: depletion of total cellular cholesterol in HBE1 cells; assay type: cell-based; details: HBE1, 48 hours; 50-400 nM and 1-20 μM; concentrations marked (*) in FIGS. 1, 2; p<0.05
Procedure: Total cellular cholesterol was measured by spectrophotometry, and plotted as the ratio of absorbance to total protein in μg. […] Significant reductions in cholesterol content (≥50%, p<0.05) are indicated (*).

Hydroxy Simvastatin [INS102-S]
binding to SARS-COV-2 S-protein (in words) ([1]; MST binding assay): weak binding

CC(C)c1c(C(=O)Nc2ccccc2)c(-c2ccccc2)c(-c2ccc(F)cc2)n1CC[C@@H](O)C[C@@H](O)CC(=O)O [INS104, Atorvastatin]
pKd [1]: 6.34 to 6.63 | Remarks [1]: Strong Binding | S/N [1]: 8.5-8.7 | binding to SARS-COV-2 S-protein (in words) [1]: bind with SARS-COV-2 S-protein at nanomolar (nM) concentrations | Kd [1]: 234 to 456 nM | decrease of viral load, agent alone (SARS-CoV-2 [2]): 22% | decrease in viral load, combination with remdesivir or dexamethasone vs monotherapies (SARS-CoV-2 [2]; FIGS. 30, 31, statin and SARS-CoV-2 (MOI 0.01) mixed 1 hour at room temperature, 24 hours post infection): synergistic | enhanced decrease of viral load, combination vs two single agents (SARS-CoV-2 [2]; statin 0.2 μM + Dex 0.1 μM): — | enhanced decrease of viral load, combination vs two single agents (SARS-CoV-2 [2]; statin 0.2 μM + Dex 1 μM): (e) | enhanced decrease of viral load, combination vs two single agents (SARS-CoV-2 [2]; statin 0.2 μM + Dex 10 μM): — | enhanced decrease of viral load, combination vs two single agents (SARS-CoV-2 [2]; statin 0.2 μM + Remde 1): — | enhanced decrease of viral load, combination vs two single agents (SARS-CoV-2 [2]; statin 0.2 μM + Remde 10): — | enhanced decrease of viral load, combination vs two single agents (SARS-CoV-2 [2]; statin 0.2 μM + Remde 100): (e) | enhanced decrease of viral load, combination vs two single agents (SARS-CoV-2 [2]; statin 1 μM + Dex 0.1 μM): — | enhanced decrease of viral load, combination vs two single agents (SARS-CoV-2 [2]; statin 1 μM + Dex 1 μM): E | enhanced decrease of viral load, combination vs two single agents (SARS-CoV-2 [2]; statin 1 μM + Dex 10 μM): (e) | enhanced decrease of viral load, combination vs two single agents (SARS-CoV-2 [2]; statin 1 μM + Remde 1): — | enhanced decrease of viral load, combination vs two single agents (SARS-CoV-2 [2]; statin 1 μM + Remde 10): (e) | enhanced decrease of viral load, combination vs two single agents (SARS-CoV-2 [2]; statin 1 μM + Remde 100): — | enhanced decrease of viral load, combination vs two single agents (SARS-CoV-2 [2]; statin 5 μM + Dex 0.1 μM): — | enhanced decrease of viral load, combination vs two single agents (SARS-CoV-2 [2]; statin 5 μM + Dex 1 μM): synergistic enhancement and E | enhanced decrease of viral load, combination vs two single agents (SARS-CoV-2 [2]; statin 5 μM + Dex 10 μM): enhancement was maintained at a lower level and E | enhanced decrease of viral load, combination vs two single agents (SARS-CoV-2 [2]; statin 5 μM + Remde 1): — | enhanced decrease of viral load, combination vs two single agents (SARS-CoV-2 [2]; statin 5 μM + Remde 10): enhancement in the decrease of viral load and E | enhanced decrease of viral load, combination vs two single agents (SARS-CoV-2 [2]; statin 5 μM + Remde 100): —

CCC(C)(C)C(=O)O[C@H]1C[C@@H](C)C=C2C=C[C@H](C)[C@H](CC[C@@H]3C[C@@H](O)CC(=O)O3)[C@H]21 [INS102, Simvastatin]
Average (percent cell viability) (SARS-CoV-2 [3]; Case A: compound added 1 h after infection, 72 h contact, 0.1 uM): 5.506% | Average (percent cell viability) (SARS-CoV-2 [3]; Case A: compound added 1 h after infection, 72 h contact, 1 uM): 7.304% | Average (percent cell viability) (SARS-CoV-2 [3]; Case A: compound added 1 h after infection, 72 h contact, 10 uM): 17.48% | Average (percent cell viability) (SARS-CoV-2 [3]; Case B: compound added 24 h after infection, 48 h contact, 0.1 uM): 6.427% | Average (percent cell viability) (SARS-CoV-2 [3]; Case B: compound added 24 h after infection, 48 h contact, 1 uM): 9.597% | Average (percent cell viability) (SARS-CoV-2 [3]; Case B: compound added 24 h after infection, 48 h contact, 10 uM): 11.85% | Average (percent cell viability) (SARS-CoV-2 [3]; Case C: compound added 48 h after infection, 24 h contact, 0.1 uM): 3.967% | Average (percent cell viability) (SARS-CoV-2 [3]; Case C: compound added 48 h after infection, 24 h contact, 1 uM): 2.16% | Average (percent cell viability) (SARS-CoV-2 [3]; Case C: compound added 48 h after infection, 24 h contact, 10 uM): 6.117% | Average (percent cell viability) (SARS-CoV-2 [3]; Case D: pre-treated 6 h, then infected 72 h, 0.1 uM): 35.26% | Average (percent cell viability) (SARS-CoV-2 [3]; Case D: pre-treated 6 h, then infected 72 h, 1 uM): 31.9% | Average (percent cell viability) (SARS-CoV-2 [3]; Case D: pre-treated 6 h, then infected 72 h, 10 uM): 33.31% | Average (percent cell viability) (SARS-CoV-2 [3]; Case E: pre-treated 24 h, then infected 72 h, 0.1 uM): −0.98% | Average (percent cell viability) (SARS-CoV-2 [3]; Case E: pre-treated 24 h, then infected 72 h, 1.0 uM): 29.28% | Average (percent cell viability) (SARS-CoV-2 [3]; Case E: pre-treated 24 h, then infected 72 h, 10.0 uM): 46.90% | Average (percent cell viability) (SARS-CoV-2 [3]; Case F: compound 1 h before infection (coinc 1 h), then virus 72 h, 0.1 uM): 10.1% | Average (percent cell viability) (SARS-CoV-2 [3]; Case F: compound 1 h before infection (coinc 1 h), then virus 72 h, 1 uM): 8.721% | Average (percent cell viability) (SARS-CoV-2 [3]; Case F: compound 1 h before infection (coinc 1 h), then virus 72 h, 10 uM): 19.4% | enhanced decrease of viral load, combination vs two single agents (SARS-CoV-2 [2]; statin 0.1 μM + Dex 0.1 μM): — | enhanced decrease of viral load, combination vs two single agents (SARS-CoV-2 [2]; statin 0.1 μM + Dex 1 μM): E | enhanced decrease of viral load, combination vs two single agents (SARS-CoV-2 [2]; statin 0.1 μM + Dex 10 μM): E | enhanced decrease of viral load, combination vs two single agents (SARS-CoV-2 [2]; statin 0.1 μM + Remde 1): — | enhanced decrease of viral load, combination vs two single agents (SARS-CoV-2 [2]; statin 0.1 μM + Remde 10): — | enhanced decrease of viral load, combination vs two single agents (SARS-CoV-2 [2]; statin 0.1 μM + Remde 100): — | enhanced decrease of viral load, combination vs two single agents (SARS-CoV-2 [2]; statin 1 μM + Dex 0.1 μM): E | enhanced decrease of viral load, combination vs two single agents (SARS-CoV-2 [2]; statin 1 μM + Dex 1 μM): E | enhanced decrease of viral load, combination vs two single agents (SARS-CoV-2 [2]; statin 1 μM + Dex 10 μM): — | enhanced decrease of viral load, combination vs two single agents (SARS-CoV-2 [2]; statin 1 μM + Remde 1): — | enhanced decrease of viral load, combination vs two single agents (SARS-CoV-2 [2]; statin 1 μM + Remde 10): — | enhanced decrease of viral load, combination vs two single agents (SARS-CoV-2 [2]; statin 1 μM + Remde 100): E | enhanced decrease of viral load, combination vs two single agents (SARS-CoV-2 [2]; statin 10 μM + Dex 0.1 μM): — | enhanced decrease of viral load, combination vs two single agents (SARS-CoV-2 [2]; statin 10 μM + Dex 1 μM): — | enhanced decrease of viral load, combination vs two single agents (SARS-CoV-2 [2]; statin 10 μM + Dex 10 μM): — | enhanced decrease of viral load, combination vs two single agents (SARS-CoV-2 [2]; statin 10 μM + Remde 1): — | enhanced decrease of viral load, combination vs two single agents (SARS-CoV-2 [2]; statin 10 μM + Remde 10): — | enhanced decrease of viral load, combination vs two single agents (SARS-CoV-2 [2]; statin 10 μM + Remde 100): E | reduction in cholesterol content [4]: ≥ 50%

CCC(C)(C)C(=O)O[C@H]1C[C@@H](C)C=C2C=C[C@H](C)[C@H](CC[C@@H](O)C[C@@H](O)CC(=O)O)[C@H]21 [INS106, Simvastatin Hydroxy Acid, Ammonium Salt]
Kd ([1]; Table 2): 1570 to 2600 nM

CC[C@H](C)C(=O)O[C@H]1C[C@@H](C)C=C2C=C[C@H](C)[C@H](CC[C@@H]3C[C@@H](O)CC(=O)O3)[C@H]21 [INS105, Lovastatin]
Kd ([1]; Table 2): 529 to 929 nM

C[C@@H]1C[C@H]2[C@@H]3CCC4=CC(=O)C=C[C@]4(C)[C@@]3(F)[C@@H](O)C[C@]2(C)[C@@]1(O)C(=O)CO [Dexamethasone, dexamethasone]
decrease of viral load, agent alone (SARS-CoV-2 [2]): 46%

C[C@H](N[C@@H](CCc1ccccc1)C(=O)O)C(=O)N1CCC[C@H]1C(=O)O [INS107]
binding to SARS-COV-2 S-protein (in words) ([1]; MST binding assay): no binding is indicated

CC[C@H](C)C(=O)O[C@H]1C[C@H](O)C=C2C=C[C@H](C)[C@H](CC[C@@H](O)C[C@@H](O)CC(=O)O)[C@H]21 [INS101, Pravastatin Sodium]
binding to SARS-COV-2 S-protein (in words) ([1]; MST binding assay): weak binding; also recorded: none or very low affinity | Remarks ([1]; Table 1, binding to SARS-CoV-2 S1): No interaction/weak binder
